Test results from ChEMBL document CHEMBL5579862, “Development of Novel Bacterial Topoisomerase Inhibitors Assisted by Computational Screening” (ACS Med Chem Lett, 2024).
pIC50: −log10 of the molar value. Converted amounts (≈) assume the structure as drawn. The source made the active and inactive calls. The calls are words filed in the database; no cut-off is given here.

Legend:
[1] = test system: Staphylococcus aureus; experiment: Antibacterial activity against Staphylococcus aureus ATCC 29213; format: functional
[2] = test system: Staphylococcus aureus; experiment: Antibacterial activity against Staphylococcus aureus D83N; format: functional
[3] = test system: Salmonella typhimurium; experiment: Antibacterial activity against Salmonella typhimurium ATCC 14028; format: functional, Salmonella enterica subsp. enterica serovar Typhimurium; conditions: Salmonella enterica
[4] = test system: Salmonella typhimurium; experiment: Antibacterial activity against efflux deficient Salmonella typhimurium 14028 deltatolC1::kan; format: functional, Salmonella enterica subsp. enterica serovar Typhimurium; conditions: Salmonella enterica
[5] = test system: Staphylococcus aureus; experiment: Antibacterial activity against methicillin resistant Staphylococcus aureus USA300; format: functional
[6] = test system: Escherichia coli; experiment: Antibacterial activity against Escherichia coli ATCC 25922; format: functional
[7] = test system: Acinetobacter baumannii; experiment: Antibacterial activity against Acinetobacter baumannii ATCC 19606; format: functional
[8] = molecular target: DNA gyrase (Staphylococcus aureus, UniProt P0A0K8+P20831); experiment: Inhibition of Staphylococcus aureus DNA gyrase using relaxed pBR322 DNA as substrate incubated for 30 mins by ethidium bromide staining based agarose gel electrophoresis method; format: protein-complex assay
[9] = molecular target: Topoisomerase IV (Staphylococcus aureus, UniProt P0C1S7+P0C1U9); experiment: Inhibition of Staphylococcus aureus topoisomerase-IV assessed as reduction in decatenation using kinetoplast DNA as substrate incubated for 20 mins by ethidium bromide staining based agarose gel electrophoresis method; format: protein-complex assay
[10] = molecular target: T1, Topoisomerase IV (Staphylococcus aureus) (UniProt P0C1U9+P0C1S7); experiment: Inhibition of Staphylococcus aureus DNA topoisomerase IV assessed as accumulation of single strand breaks incubated at 37 degreeC for 30 mins followed by incubation at 45 degreeC for 30 mins by ethidium bromide based agarose gel electrophoresis; format: protein-complex assay; conditions: time 60.0 min
[11] = molecular target: T1, Topoisomerase IV (Staphylococcus aureus); experiment: Inhibition of Staphylococcus aureus DNA topoisomerase IV assessed as accumulation of double strand breaks incubated at 37 degreeC for 30 mins followed by incubation at 45 degreeC for 30 mins by ethidium bromide based agarose gel electrophoresis; format: protein-complex assay; conditions: time 60.0 min
[12] = molecular target: DNA gyrase (Staphylococcus aureus) (UniProt P0A0K8+P20831); experiment: Inhibition of Staphylococcus aureus DNA gyrase assessed as accumulation of single strand breaks at 10 uM incubated at 37 degreeC for 30 mins followed by incubation at 45 degreeC for 30 mins by ethidium bromide based agarose gel electrophoresis; format: protein-complex assay; conditions: time 60.0 min
[13] = molecular target: DNA gyrase (Escherichia coli, UniProt P0AES4+P0AES6); experiment: Inhibition of Escherichia coli DNA gyrase using relaxed pBR322 DNA as substrate incubated at 37 degreeC for 30 to 45 mins followed by incubation at 75 degreeC for 10 mins by ethidium bromide staining based agarose gel electrophoresis method; format: protein-complex assay

SMILES	MIC [1] [µg/mL]	MIC [2] [µg/mL]	MIC [3] [µg/mL]	MIC [4] [µg/mL]	MIC [5] [µg/mL]	MIC [7] [µg/mL]	also measured
COc1ccc2ncc(F)c(CCN3CCC(/C=C/c4ccc(C)cc4)CC3)c2n1	0.25 (≈ 0.616 µM)	≥ 32	≥ 64	0.5 (≈ 1.23 µM)	–	–	–
COc1ccc2ncc(F)c(CCN3CCC([C@@H](O)[C@@H](O)c4ccc(C)cc4)CC3)c2n1	0.13 (≈ 0.296 µM)	–	–	–	0.25 (≈ 0.569 µM)	–	–
COc1ccc2ncc(F)c(CCN3CCC([C@@H](O)[C@H](O)c4ccc5c(c4)NC(=O)CO5)CC3)c2n1	–	≥ 32	–	–	–	–	–
COc1ccc2ncc(F)c(CCN3CCC(C(O)Cc4ccc5c(c4)OCCO5)CC3)c2n1 (stereo not drawn)	–	4 (≈ 8.56 µM)	–	–	–	–	–
COc1ccc2ncc(F)c(CCN3CCC(C(O)Cc4ccc5c(c4)OCC(=O)N5)CC3)c2n1 (stereo not drawn)	–	–	–	0.125 (≈ 0.26 µM)	–	–	–
COc1ccc2ncc(F)c(CCN3CCC(/C=C\c4ccc(C)cc4)CC3)c2n1	4 (≈ 9.86 µM)	32 (≈ 78.9 µM)	–	8 (≈ 19.7 µM)	4 (≈ 9.86 µM)	–	–
COc1ccc2ncc(F)c(CCN3CCC([C@@H](O)[C@@H](O)c4ccc5c(c4)OCCO5)CC3)c2n1	–	–	–	–	0.03 (≈ 0.062 µM)	–	–
COc1ccc2ncc(F)c(CCN3CCC(/C=C/c4ccc5c(c4)OCCO5)CC3)c2n1	0.25 (≈ 0.556 µM)	2 (≈ 4.45 µM)	64 (≈ 142 µM)	0.125 (≈ 0.278 µM)	0.5 (≈ 1.11 µM)	8 (≈ 17.8 µM)	MIC [6]: 8 µg/mL (≈ 17.8 µM)
COc1ccc2ncc(F)c(CCN3CCC(C(=O)Cc4ccc5c(c4)NC(=O)CO5)CC3)c2n1	≤ 0.13	–	16 (≈ 33.4 µM)	–	–	4 (≈ 8.36 µM)	MIC [6]: 2 µg/mL (≈ 4.18 µM)
COc1ccc2ncc(F)c(CCN3CCC([C@H](O)[C@@H](O)c4ccc(C)cc4)CC3)c2n1	–	–	–	–	2 (≈ 4.55 µM)	32 (≈ 72.8 µM)	–
COc1ccc2ncc(F)c(CCN3CCC(/C=C/c4ccc5c(c4)NC(=O)CO5)CC3)c2n1	0.5 (≈ 1.08 µM)	16 (≈ 34.6 µM)	16 (≈ 34.6 µM)	0.25 (≈ 0.541 µM)	≤ 0.25	8 (≈ 17.3 µM)	–
O=c1ccc2ncc(=O)n3c2n1C[C@H]3CN1CCC(NCc2cc3c(cn2)OCCC3)CC1 [GEPOTIDACIN]	–	8 (≈ 17.8 µM)	2 (≈ 4.46 µM)	0.125 (≈ 0.279 µM)	–	8 (≈ 17.8 µM)	MIC [6]: 1 µg/mL (≈ 2.23 µM)
COc1ccc2ncc(F)c(CCN3CCC(/C=C\c4ccc5c(c4)OCCO5)CC3)c2n1	8 (≈ 17.8 µM)	≥ 16	≥ 64	4 (≈ 8.9 µM)	8 (≈ 17.8 µM)	64 (≈ 142 µM)	MIC [6]: ≥ 64 µg/mL
COc1ccc2ncc(F)c(CCN3CCC(NCc4ccc(C)cc4)CC3)c2n1	≤ 0.25	16 (≈ 39.2 µM)	32 (≈ 78.3 µM)	0.5 (≈ 1.22 µM)	≤ 0.25	4 (≈ 9.79 µM)	MIC [6]: 4 µg/mL (≈ 9.79 µM); pIC50 [8]: 8.40; pIC50 [9]: 6.16; inhibition [10]: Active; inhibition [11]: < 1%; inhibition [12]: Active
COc1ccc2ncc(F)c(CCN3CCC([C@H](O)[C@@H](O)c4ccc5c(c4)NC(=O)CO5)CC3)c2n1	–	–	–	0.25 (≈ 0.503 µM)	–	–	–
COc1ccc2ncc(F)c(CCN3CCC([C@H](O)[C@H](O)c4ccc(C)cc4)CC3)c2n1	–	–	–	–	0.13 (≈ 0.296 µM)	–	pIC50 [8]: 7.19; pIC50 [9]: 5.48; pIC50 [13]: 4.77; inhibition [10]: Active; inhibition [11]: < 1%
COc1ccc2ncc(F)c(CCN3CCC([C@@H](O)[C@H](O)c4ccc5c(c4)OCCO5)CC3)c2n1	–	–	–	–	1 (≈ 2.07 µM)	–	–
COc1ccc2ncc(F)c(CCN3CCC([C@@H](O)[C@H](O)c4ccc(C)cc4)CC3)c2n1	–	–	–	0.5 (≈ 1.14 µM)	2 (≈ 4.55 µM)	–	–
COc1ccc2ncc(F)c(CCN3CCC(C(=O)Cc4ccc5c(c4)OCCO5)CC3)c2n1	4 (≈ 8.59 µM)	32 (≈ 68.7 µM)	–	≥ 1	4 (≈ 8.59 µM)	64 (≈ 137 µM)	MIC [6]: 64 µg/mL (≈ 137 µM)
COc1ccc2ncc(F)c(CCN3CCC(CCc4ccc5c(c4)OCCO5)CC3)c2n1	–	8 (≈ 17.7 µM)	–	0.25 (≈ 0.554 µM)	–	–	–
COc1ccc2ncc(F)c(CCN3CCC(C(N)Cc4ccc(C)cc4)CC3)c2n1 (stereo not drawn)	–	32 (≈ 75.7 µM)	–	–	–	–	pIC50 [8]: 5.30; pIC50 [9]: 4.08; pIC50 [13]: < 3.40; inhibition [10]: Active; inhibition [11]: < 1%; inhibition [12]: Active
COc1ccc2ncc(F)c(CCN3CCC(CCc4ccc(C)cc4)CC3)c2n1	–	4 (≈ 9.82 µM)	≥ 64	–	–	–	–
COc1ccc2ncc(F)c(CCN3CCC(C(N)Cc4ccc5c(c4)OCCO5)CC3)c2n1 (stereo not drawn)	–	≥ 16	–	–	–	–	–
COc1ccc2ncc(F)c(CCN3CCC(/C=C\c4ccc5c(c4)NC(=O)CO5)CC3)c2n1	≥ 64	≥ 64	–	16 (≈ 34.6 µM)	–	32 (≈ 69.2 µM)	–
COc1ccc2ncc(F)c(CCN3CCC(C(O)Cc4ccc(C)cc4)CC3)c2n1 (stereo not drawn)	–	8 (≈ 18.9 µM)	–	1 (≈ 2.36 µM)	0.25 (≈ 0.59 µM)	–	pIC50 [8]: 6.62; pIC50 [9]: 5.64; pIC50 [13]: 4.91; inhibition [10]: Active; inhibition [11]: < 1%
COc1ccc2ncc(F)c(CCN3CCC([C@H](O)[C@H](O)c4ccc5c(c4)OCCO5)CC3)c2n1	≤ 0.13	–	–	–	–	–	–
